Data published in article PMC6522510 (Nature Communications, 2019).
Read-outs that look alike come from different tables or passages of the source.

Columns and labels:
Assay in all cases: Secondary dose-response HTS, Cell Titer Glo; call rule not given here
Format in all cases: cell-based, human
M07e = system: M07e
MOLM-13 = settings: MOLM-13
U937 = system: U937
CHRF288-11 = system: CHRF288-11
CMS = system: CMS
CMK = settings: CMK
ML2 = settings: ML-2
MV4-11 = settings: MV4-11
[1] = Homo sapiens, secondary high-throughput screen, read-out: average effective concentration, MOLM-13
[2] = Homo sapiens, U-937, secondary high-throughput screen, U937, read-out: average effective concentration, U937
[3] = Homo sapiens, HTS, secondary high-throughput screen, CHRF288-11, read-out: average effective concentration, CHRF288-11
[4] = Homo sapiens, HTS, secondary high-throughput screen, CMS, read-out: average effective concentration, CMS
[5] = secondary high-throughput screen
[6] = Homo sapiens, secondary high-throughput screen, read-out: average effective concentration, ML-2
[7] = Homo sapiens, M-07e, secondary HTS, 72 h, average of triplicate, read-out: EC50 M07e
[8] = Homo sapiens, secondary HTS, 72 h, average of triplicate, read-out: EC50 MOLM-13
[9] = Homo sapiens, U-937, secondary HTS, 72 h, average of triplicate, read-out: EC50 U937
[10] = Homo sapiens, secondary HTS, 72 h, average of triplicate, read-out: EC50 CHRF288-11
[11] = Homo sapiens, secondary HTS, 72 h, average of triplicate, read-out: EC50 CMS
[12] = Homo sapiens, secondary HTS, 72 h, average of triplicate, read-out: EC50 CMK
[13] = Homo sapiens, secondary HTS, 72 h, average of triplicate, read-out: EC50 ML2
[14] = Homo sapiens, secondary HTS, 72 h, average of triplicate, read-out: EC50 MV4-11
[15] = Homo sapiens, M-07e, secondary high-throughput screen, M07e, read-out: average effective concentration, M07e
[16] = Homo sapiens, secondary high-throughput screen, read-out: average effective concentration, MV4-11
[17] = secondary high-throughput screen, M07e
[18] = secondary high-throughput screen, read-out: average effective concentration, MOLM-13
[19] = secondary high-throughput screen, U937
[20] = secondary high-throughput screen, CHRF288-11
[21] = secondary high-throughput screen, CMS, read-out: average effective concentration, CMS
[22] = secondary high-throughput screen, read-out: average effective concentration, ML-2
[23] = secondary high-throughput screen, read-out: average effective concentration, MV4-11
[24] = secondary high-throughput screen, CMS
[25] = secondary high-throughput screen, M07e, read-out: average effective concentration, M07e
[26] = secondary high-throughput screen, U937, read-out: average effective concentration, U937
[27] = secondary high-throughput screen, CHRF288-11, read-out: average effective concentration, CHRF288-11
[28] = Homo sapiens, secondary high-throughput screen, read-out: average effective concentration, CMK

Molecule	EC50 (MOLM-13; [1]) [nM]	EC50 (U937; [2]) [nM]	EC50 (CHRF288-11; [3]) [nM]	average effective concentration, CMK (CMK; [5])	EC50 (ML2; [6]) [nM]	average effective concentration, MV4-11 (MV4-11; [5])	EC50 (MV4-11; [16]) [nM]	average effective concentration, M07e (M07e; [17])	average effective concentration, U937 (U937; [19])	average effective concentration, CHRF288-11 (CHRF288-11; [20])	EC50 (ML2; [22]) [nM]	average effective concentration, MOLM-13 (MOLM-13; [5])	average effective concentration, CMS (CMS; [24])	average effective concentration, ML-2 (ML2; [5])	other results
COc1cc2c(NC3CCN(C(C)C)CC3)nc(C3CCCCC3)nc2cc1OCCCN1CCCC1 [UNC0638 HYDRATE]	> 10000	4500	> 10000	Inactive	> 10000	Inactive									EC50 (M07e; Homo sapiens, M-07e, secondary high-throughput screen, […], read-out: average effective concentration, M07e): 5000 nM; EC50 (CMS; [4]): 6000 nM
O=C1c2c(O)ccc(O)c2C(=O)c2c(NCCNCCO)ccc(NCCNCCO)c21 [Mitoxantrone, reference compound]															EC50 (M07e; [7]): 30 nM; EC50 (MOLM-13; [8]): 10 nM; EC50 (U937; [9]): 30 nM; EC50 (CHRF288-11; [10]): 20 nM; EC50 (CMS; [11]): 80 nM; EC50 (CMK; [12]): 40 nM; EC50 (ML2; [13]): 240 nM; EC50 (MV4-11; [14]): 1 nM
Cc1cnc(Nc2ccc(OCCN3CCCC3)cc2)nc1Nc1cccc(S(=O)(=O)NC(C)(C)C)c1 [FEDRATINIB]	51	2900	760		2900		82								EC50 (M07e; [15]): 2000 nM; EC50 (CMS; Homo sapiens, HTS, read-out: average effective concentration, CMS): 700 nM; EC50 (CMK; Homo sapiens, read-out: average effective concentration, CMK): 240 nM
C[C@@H]1O[C@@H](O[C@H]2C[C@@H](O)[C@]3(CO)[C@H]4[C@H](O)C[C@]5(C)[C@@H](C6=CC(=O)OC6)CC[C@]5(O)[C@@H]4CC[C@]3(O)C2)[C@H](O)[C@H](O)[C@H]1O [Ouabain, reference compound]		41	43		31		38								EC50 (M07e; [7]): 60 nM; EC50 (M07e; [15]): 64 nM; EC50 (MOLM-13; [8]): 30 nM; EC50 (U937; [9]): 40 nM; EC50 (CHRF288-11; [10]): 40 nM; EC50 (CMS; [4]): 46 nM; EC50 (CMS; [11]): 50 nM; EC50 (CMK; [12]): 180 nM; EC50 (ML2; [13]): 30 nM; EC50 (MV4-11; [14]): 40 nM
LB 42708				Inactive				Inactive	Inactive	Inactive	2300				EC50 (MOLM-13; [18]): 2500 nM; EC50 (CMS; [21]): 3400 nM; EC50 (MV4-11; [23]): 5000 nM
COc1cccc(-c2cc(=O)c3ccccc3o2)c1N [PD 98059]				Inactive		Inactive		Inactive	Inactive	Inactive		Inactive	Inactive	Inactive	
C#Cc1cccc(Nc2ncnc3cc(OCCOC)c(OCCOC)cc23)c1 [ERLOTINIB]	> 10000			Inactive			> 10000	Inactive	Inactive	Inactive			Inactive	Inactive	
MST312				Inactive		Inactive					3700				EC50 (M07e; [25]): 5200 nM; EC50 (MOLM-13; [18]): 1500 nM; EC50 (U937; [26]): 2800 nM; EC50 (CHRF288-11; [27]): 2000 nM; EC50 (CMS; [21]): 2900 nM
C[n+]1c2cc(N)ccc2cc2ccc(N)cc21				Inactive		Inactive		Inactive	Inactive	Inactive	7700	Inactive	Inactive		
CCN(CC)CCNC(=O)c1c(C)[nH]c(/C=C2\C(=O)Nc3ccc(F)cc32)c1C [SUNITINIB]	19	270	490		270		34								EC50 (M07e; [15]): 460 nM; EC50 (CMS; [4]): > 10000 nM; EC50 (CMK; [28]): 330 nM
AZ-20				Inactive		Inactive					30	Inactive			EC50 (M07e; [25]): 200 nM; EC50 (U937; [26]): 4700 nM; EC50 (CHRF288-11; [27]): 2500 nM; EC50 (CMS; [21]): 600 nM
PU-H71								Inactive	Inactive		82				EC50 (MOLM-13; [18]): 19 nM; EC50 (CHRF288-11; [27]): 170 nM; EC50 (CMS; [21]): 180 nM; EC50 (CMK; secondary high-throughput screen, read-out: average effective concentration, CMK): 24 nM; EC50 (MV4-11; [23]): 23 nM
CCCCCCCCCCCCCCCc1cccc(OCC)c1C(=O)Nc1ccc(Cl)c(C(F)(F)F)c1 [CTPB]				Inactive		Inactive		Inactive	Inactive	Inactive			Inactive	Inactive	EC50 (MOLM-13; [18]): 900 nM
COc1cc2c(NC3CCN(C)CC3)nc(N3CCCN(C)CC3)nc2cc1OCCOCCN(C)C [UNC0321]				Inactive		Inactive		Inactive	Inactive	Inactive		Inactive	Inactive	Inactive	
C[N+](C)(C)[C@@H](Cc1c[nH]c(=S)[nH]1)C(=O)[O-] [L-(+)-ERGOTHIONEINE]				Inactive		Inactive			Inactive	Inactive		Inactive	Inactive	Inactive	EC50 (M07e; [25]): 3200 nM
C[C@@H](Oc1cc(-c2cnn(C3CCNCC3)c2)cnc1N)c1c(Cl)ccc(F)c1Cl [CRIZOTINIB]	3900	> 10000	7800		4800		3900								EC50 (M07e; [15]): > 10000 nM; EC50 (CMS; [4]): 8300 nM; EC50 (CMK; [28]): 4200 nM
